# The RepoRT retention time repository (doi:10.1016/j.foodchem.2015.11.070)
# Test: Thermo Scientific Hypersil GOLD aQ, 100 × 2.1 mm, 1.9 µm, 30 °C, 0.3 mL/min, estimated dead time 0.73 min; A: water + 0.01% formic acid + 4 mM ammonium formate; B: methanol + 0.01% formic acid + 4 mM ammonium formate; gradient (min/%B) 0/5 1/5 8/100 12/100
# Settings: stereoisomer not certain
row,SMILES,LC retention time [min]
1,Cc1nnc(-c2ccccc2)c(=O)n1N,7.23
2,COC(=O)NC(=S)Nc1ccccc1NC(=S)NC(=O)OC,8.31
3,C=CCC1=C(C)C(OC(=O)C2C(C=C(C)C)C2(C)C)CC1=O (centres undefined),10.8
4,Cc1cc(=O)[nH]o1,5.67
5,CN(C)NC(=O)CCC(=O)O,1.58
6,CCNc1nc(NC(C)(C)C)nc(OC)n1,8.88
7,CCNC(=O)NC(=O)C(C#N)=NOC,8.63
8,CC(C)OC(=O)Nc1ccccc1,8.61
9,C=CC=CCC1=C(C)C(OC(=O)C2C(C=C(C)C)C2(C)C)CC1=O (centres undefined),11
10,CCCCc1c(C)nc(NCC)nc1OS(=O)(=O)N(C)C,9.87
11,CNC(=O)CSP(=O)(OC)OC,1.79
12,CCOP(=O)(NC(C)C)Oc1ccc(SC)c(C)c1 (centres undefined),9.99
13,COC(=O)c1sccc1S(=O)(=O)NC(=O)Nc1nc(C)nc(OC)n1,8.32
14,CCOP(=S)(OCC)Oc1ccc(S(C)=O)cc1 (centres undefined),9.1
15,CC(COc1ccc(Oc2ccccc2)cc1)Oc1ccccn1 (centres undefined),10.9
16,CNC(=O)Oc1cccc(N=CN(C)C)c1,7.91
17,CNC(=O)ON=C(CS(C)=O)C(C)(C)C (centres undefined),6.31
18,CNC(=O)ON=CC(C)(C)SC,7.89
19,CC(C)C1(C)N=C(c2ncccc2C(=O)O)NC1=O (centres undefined),6.79
20,CC1=CC2OC3C(O)CC(C)(C34CO4)C2(CO)C(O)C1=O (centres undefined),9.63
21,CC(C)N(Cc1ccccc1)C(=O)C(C)(C)C,9.96
22,CC1CCCC(=O)CCCC=Cc2cc(O)cc(O)c2C(=O)O1 (centres undefined),9.87
23,CCOC(=O)c1cn2nc(OP(=S)(OCC)OCC)cc2nc1C,10.4
24,CNC(=O)ON=C(CS(C)(=O)=O)C(C)(C)C,6.92
25,Cc1cc(C)nc(Nc2ccccc2)n1,9.6

row,SMILES,LC retention time [min]
1,COP(=O)(OC)OC(C)=CC(=O)N(C)C,6.63
2,CCOP(=S)(OCC)Oc1ccc(=O)n(-c2ccccc2)n1,9.71
3,COC(=O)C(C)N(C(=O)Cc1ccccc1)c1c(C)cccc1C (centres undefined),10.2
4,CC1(c2ccc(Oc3ccccc3)cc2)OC(=O)N(Nc2ccccc2)C1=O (centres undefined),10.2
5,CCCN(CC)CC1COC2(CCC(C(C)(C)C)CC2)O1 (centres undefined),9.58
6,CC1(C)C(C(=O)OC(C#N)c2cccc(Oc3ccccc3)c2)C1(C)C (centres undefined),11
7,CNC(=O)C=C(C)OP(=O)(OC)OC,6.58
8,CNC(=O)Oc1cccc2c1OC(C)(C)C2O (centres undefined),7.11
9,COc1cc2c(c3oc(=O)c4c(c13)CCC4=O)C1C=COC1O2 (centres undefined),8.44
10,CSc1nc(NC(C)C)nc(NC(C)C)n1,9.65
11,CCOP(=O)(NC(C)C)Oc1ccc(S(C)=O)c(C)c1 (centres undefined),8.44
12,COP(=S)(OC)SCN1C(=O)c2ccccc2C1=O,9.39
13,CC(=O)OCC12CC(OC(=O)CC(C)C)C(C)=CC1OC1C(O)C(OC(C)=O)C2(C)C12CO2 (centres undefined),9.3
14,CC(C)c1ccc(NC(=O)N(C)C)cc1,9.15
15,COP(N)(=S)Oc1ccccc1C(=O)OC(C)C (centres undefined),9.04
16,CCCCN(CCCC)SN(C)C(=O)Oc1cccc2c1OC(C)(C)C2,11.1
17,CC=C(C)C(=O)OC1CC(OC(C)=O)C2(C(=O)OC)COC3C2C12COC(O)(C(=O)OC)C2C(C)(C12OC1(C)C1CC2OC2OC=CC21O)C3O (centres undefined),8.67
18,CCOC(=O)NCCOc1ccc(Oc2ccccc2)cc1,9.38
19,CC(Cc1ccc(C(C)(C)C)cc1)CN1CCCCC1 (centres undefined),9.29
20,CNC(=O)Oc1cc(C)c(S(C)=O)c(C)c1 (centres undefined),7.09
21,CC(C)c1cc(Oc2ccccc2)cc(C(C)C)c1NC(=S)NC(C)(C)C,11
22,CCS(=O)(=O)c1cccnc1S(=O)(=O)NC(=O)Nc1nc(OC)cc(OC)n1,8.71
23,Cc1cc(C)c(C2=C(OC(=O)CC(C)(C)C)C3(CCCC3)OC2=O)c(C)c1,10.9
24,CCSCc1ccccc1OC(=O)NC,8.76
